Data: paper PMC3236199, “Development of Derivatives of 3, 3′-Diindolylmethane as Potent Leishmania donovani Bi-Subunit Topoisomerase IB Poisons” (PLoS ONE, 2011)

Assays:
[1] = test system: L. donovani topoisomerase II; test: Immunoband depletion assay, topoisomerase II; assay type: cell-based, Leishmania donovani; conditions: 50 µM, antibody against ATPase domain of topoisomerase II
Procedure: Leishmania cells (3×10^7) were cultured in absence and presence of the drugs. Nuclear fractions were isolated as described. Briefly, cells were suspended in hypotonic buffer (10 mM Tris-HCl, pH 7.5, 1 mM EDTA, 0.1 mM EGTA, 1 mM PMSF, 1 mM benzamidine hydrochloride and 5 mM DTT) and homogenized. The homogenate was centrifuged for 10 min at 10,000 g. The pellets were washed and used as the source of nuclear fraction. Thereafter, the nuclear fractions were lysed with 1% SDS and subjected to SDS-PAGE (10%). The proteins were electrophoretically transferred to nitrocellulose membranes and immumobloting of immobilized proteins were carried out using a rabbit polyclonal antibody raised against LdTOP1S for topoisomerase I and ATPase domain of L. donovani topoisomerase II [8].
To rule out the topoisomerase II mediated cleavable complex stabilization by the derivatives, we have carried out immunoband depletion assay with antibody raised against ATPase domain (43 kDa) of L. donovani topoisomerase II.
Supplementary file pone.0028493.s001.tif: Figure S1 Stabilization of topoisomerase-II mediated cleavable complex was determined by immunoband depletion assay. Immunoband depletion of L. donovani topoisomerase II, using an antibody raised against LdTOP2 (ATPase domain, 43 kDa). […]

[2] = test system: F270L mutant topoisomerase I; conditions: cited from earlier work
[3] = biological target: CT DNA; design: method as in PMID 17922678; conditions: interaction with DNA; read-out: dissociation constant (KD); cited from earlier work
[4] = test system: LdTOP1LS; test: Plasmid cleavage assay; assay type: biochemical, Leishmania donovani; conditions: 20 µM, pHOT1 DNA
Procedure: Cleavage assay was carried out as described previously. Briefly, 50 fmol of pHOT1 supercoiled DNA (containing topoisomerase I cleavage site) and 100 fmol of reconstituted LdTOP1LS were incubated in standard reaction mixture (50 µl) containing 50 mM Tris/HCl (pH 7.5), 100 mM KCl, 10 mM MgCl2, 0.5 mM DTT, 0.5 mM EDTA and 30 µg/ml BSA in the presence of various concentrations of drugs at 37°C for 30 min. The reactions were terminated by adding 1% SDS and 150 µg/ml proteinase K and further incubated for 1 h at 37°C. DNA samples were electrophoresed in a 1% agarose gel containing 0.5 µg/ml EtBr.
The effect of DIM and its derivatives on L. donovani topoisomerase I was examined by plasmid DNA cleavage assay as described. The topoisomerase reaction has three general mechanistic steps: (i) binding of enzyme to the substrate DNA, (ii) single strand breakage and subsequent strand rotation through the break leading to change in linking number, and (iii) strand religation. The second step of reaction is the introduction of a single-stranded nick in the phosphodiester bond of the DNA, through which an intact strand is allowed to pass. […]

c1ccc2c(Cc3c[nH]c4ccccc34)c[nH]c2c1 [DIM, 3, 3′-diindolyl methane, reference compound]
stabilization of topoisomerase II mediated cleavage complex [1]: do not stabilize cleavage complex formation | sensitivity of F270L topoisomerase I mutant [2]: insensitive | Kd [3]: 22 µM

COc1ccc2[nH]cc(Cc3c[nH]c4ccc(OC)cc34)c2c1 [DMODIM, 5,5′-dimethoxy 3,3′-diindolyl methane]
conversion of closed circular DNA (form I) to nicked circular DNA (form II) [4]: didn't cause conversion of all the form I DNA to form II
